Source: US20240277693A1, “A PHARMACEUTICAL PRODUCT CONTAINING TASQUINIMOD AND A METHOD FOR ASSESSING THE PURITY OF SAID PRODUCT” (ACTIVE BIOTECH AB, priority 2021, published 2024)

Legend:
[1] = Stability testing of capsules at 25° C./60% RH in water impermeable blister pack; type: physicochemical
[2] = Stability testing of capsules at 40° C./75% RH; type: physicochemical
Text: In some embodiments, the method disclosed herein comprises storing (keeping) a sample of the pharmaceutical product for a period of time, preferably under selected conditions of temperature and humidity. The amount (or concentration) of tasquinimod and of at least one of compounds I, II, III and IV in the sample may preferably be determined at the beginning or before the storage period and at the end of the storage period. The selected storage conditions may include a temperature in the range of, for example, 20° C. to 40° C., and a relative humidity in the surrounding atmosphere in the range of, for example, 30% to 75%; e.g. 25° C. and 60% RH, or 30° C. and 65% RH, or 35° C. and 70% RH, or 40° C. and 75% RH. The storage period may extend over a time period in the range of, for example, several weeks to several years. For example, the stability testing period (“storage period”) may be 2 weeks, 3 weeks, 1 month, 2 months, 3 months, 4 months, 5 months, 6 months, 9 months, 1 year, 18 months, 2 years, 3 years, 4 years or even 5 years or longer. A shorter storage period may be selected by use of higher storage temperature and/or higher relative humidity (RH). The total amount of a tasquinimod decomposition product in the sample at the end of the storage period may be determined by, for example, HPLC.
The batch of capsules manufactured in Example 2 was assessed by determining the amount of tasquinimod and the amount of compound III in a sample of the capsules, whereby the criterion for approving the batch was that a sample of capsules from the batch, at the end of a 1-month stability testing, contain not more than 1.0% w/w of compound III relative to the amount of tasquinimod. The stability testing consisted of keeping the capsules at 40° C./75% RH in open brown glass jars. At the end of the 1-month stability testing, the capsules contained 0.13% w/w of compound III, relative to the amount of tasquinimod (1.04 mg/capsule). Therefore, according to the selected criterion for approval, the batch of capsules was determined to be suitable for distribution.
The batch of capsules manufactured in Example 7 was assessed by determining the amount of tasquinimod and the amount of compound III in a sample of the capsules, whereby the criterion for approving the batch was that a sample of capsules from the batch, at the end of a 3-month stability testing, contain not more than 1.0% w/w of compound III relative to the amount of tasquinimod in the capsules. The stability testing consisted of keeping the capsules at 40° C./75% RH in sealed brown glass jars. At the end of the stability testing, the capsules contained 0.08% w/w of compound III, relative to the amount of tasquinimod (0.493 mg/capsule). Therefore, according to the selected criterion for approval, the batch of capsules was determined to be suitable for distribution.
The batch of capsules manufactured in Example 13 was assessed by determining the amount of tasquinimod and the amount of compound III in a sample of the capsules, whereby the criterion for approving the batch was that the capsules of the sample, at the end of a 3-month stability testing, contain not more than 1.0% w/w of compound III relative to the amount of tasquinimod in the capsules. The stability testing consisted of keeping the capsules, in a transparent, conventional blister pack, at 40° C./75% RH. At the end of the stability testing, the capsules contained 0.12% w/w of compound III, relative to the amount of tasquinimod (determined to be 0.253 mg/capsule). Therefore, according to the selected criterion for approval, the batch of capsules was determined to be suitable for distribution.

COc1cccc2c1c(O)c(C(=O)N(C)c1ccc(C(F)(F)F)cc1)c(=O)n2C [Tasquinimod, 4-hydroxy-5-methoxy-N, 1-dimethyl-2-oxo-N-[4-(trifluoromethyl)phenyl]-1,2-dihydroquinoline-3-carboxamide]
amount of tasquinimod in capsules ([1]; 0.25 mg capsules of Example 19, 3 months): 0.246 mg/capsule
amount of tasquinimod in capsules ([1]; 0.25 mg capsules of Example 19, 6 months): 0.243 mg/capsule
amount of tasquinimod in capsules ([1]; 0.25 mg capsules of Example 19, 9 months): 0.243 mg/capsule
amount of tasquinimod in capsules ([1]; 0.25 mg capsules of Example 19, 12 months): 0.245 mg/capsule
amount of tasquinimod in capsules ([1]; 0.25 mg capsules of Example 19, 18 months): 0.245 mg/capsule
amount of tasquinimod in capsules ([1]; 0.25 mg capsules of Example 19, 24 months): 0.237 mg/capsule
amount of tasquinimod in capsules ([1]; 0.25 mg capsules of Example 19, 36 months): 0.237 mg/capsule
amount of tasquinimod in capsules ([1]; 0.25 mg capsules of Example 19, 48 months): 0.238 mg/capsule
Tasquinimod (mg/capsule) ([1]; 0.5 mg capsules of Example 28, 3 months): 0.501 mg/capsule
Tasquinimod (mg/capsule) ([1]; 0.5 mg capsules of Example 28, 6 months): 0.497 mg/capsule
Tasquinimod (mg/capsule) ([1]; 0.5 mg capsules of Example 28, 9 months): 0.504 mg/capsule
Tasquinimod (mg/capsule) ([1]; 0.5 mg capsules of Example 28, 12 months): 0.500 mg/capsule
Tasquinimod (mg/capsule) ([1]; 0.5 mg capsules of Example 28, 18 months): 0.501 mg/capsule
Tasquinimod (mg/capsule) ([1]; 0.5 mg capsules of Example 28, 24 months): 0.486 mg/capsule
Tasquinimod (mg/capsule) ([1]; 0.5 mg capsules of Example 28, 36 months): 0.490 mg/capsule
Tasquinimod (mg/capsule) ([1]; 0.5 mg capsules of Example 28, 48 months): 0.494 mg/capsule
Tasquinimod (mg/capsule) ([1]; 1.0 mg capsules of Example 29, 3 months): 0.989 mg/capsule
Tasquinimod (mg/capsule) ([1]; 1.0 mg capsules of Example 29, 6 months): 0.988 mg/capsule
Tasquinimod (mg/capsule) ([1]; 1.0 mg capsules of Example 29, 9 months): 1.007 mg/capsule
Tasquinimod (mg/capsule) ([1]; 1.0 mg capsules of Example 29, 12 months): 0.992 mg/capsule
Tasquinimod (mg/capsule) ([1]; 1.0 mg capsules of Example 29, 18 months): 0.982 mg/capsule
Tasquinimod (mg/capsule) ([1]; 1.0 mg capsules of Example 29, 24 months): 0.997 mg/capsule
Tasquinimod (mg/capsule) ([1]; 1.0 mg capsules of Example 29, 36 months): 1.000 mg/capsule
Tasquinimod (mg/capsule) ([1]; 1.0 mg capsules of Example 29, 48 months): 0.987 mg/capsule
amount of tasquinimod in capsules ([2]; 0.25 mg capsules of Example 10, 3 months, sealed brown glass jars): 0.253 mg/capsule
amount of tasquinimod in capsules ([2]; 0.25 mg capsules of Example 10, 6 months, sealed brown glass jars): 0.247 mg/capsule
amount of tasquinimod in capsules ([2]; 0.25 mg capsules of Example 13, 3 months, transparent blister pack): 0.253 mg/capsule
amount of tasquinimod in capsules ([2]; 0.25 mg capsules of Example 13, 6 months, blister pack): 0.247 mg/capsule
amount of tasquinimod in capsules ([2]; 0.5 mg capsules of Example 7, 3 months, sealed brown glass jars): 0.493 mg/capsule
amount of tasquinimod in capsules ([2]; 0.5 mg capsules of Example 7, 6 months, sealed brown glass jars): 0.487 mg/capsule
amount of tasquinimod in capsules ([2]; 1 mg capsules of Example 2, 1 month, open brown glass jars): 1.04 mg/capsule
amount of tasquinimod in capsules ([2]; 1 mg capsules of Example 2, 2 months, open brown glass jars): 1.04 mg/capsule
amount of tasquinimod in capsules ([2]; 1 mg capsules of Example 2, 3 months, open brown glass jars): 1.00 mg/capsule
amount of tasquinimod in capsules ([2]; 1 mg capsules of Example 2, 6 months, open brown glass jars): 1.01 mg/capsule
amount of tasquinimod in capsules ([2]; 1 mg capsules of Example 16, 3 months, transparent blister pack): 0.993 mg/capsule
amount of tasquinimod in capsules ([2]; 1 mg capsules of Example 16, 6 months, blister pack): 0.985 mg/capsule
